ChEMBL document CHEMBL1127553, “Derivatives of a novel cyclopeptolide. 2. Synthesis, activity against multidrug resistance in CHO and KB cells in vitro, and structure-activity relationships” (1994)
Non-standard residues stand in square brackets, D forms with d. Residues, ends and D or L forms follow the SMILES beside them. *: point of attachment. NMeI = CC[C@H](C)[C@H](NC)C(=O)O; NMeD = CN[C@@H](CC(=O)O)C(=O)O; NMeV = CN[C@H](C(=O)O)C(C)C; Pip = O=C(O)[C@@H]1CCCCN1; dLac = C[C@@H](O)C(=O)O; Lac = C[C@H](O)C(=O)O; OtBu = CC(C)(C)O*

Assays:
[1] = test system: CHO; assay: The sensitizing capacity for colchicine treatment of multi drug resistance (MDR) CHO cell at concentration 1.0(mg/L).; type: functional, Cricetulus griseus
[2] = test system: CHO; assay: The sensitizing capacity for colchicine treatment of multi drug resistance(MDR) in CHO cell at concentration 0.1(mg/L).; type: functional, Cricetulus griseus
[3] = test system: CHO; assay: Sensitization of colchicine treated parental (PAR)CHO cells, measured at concentration 0.1(mg/L); type: functional, Cricetulus griseus
[4] = test system: CHO; assay: The sensitizing capacity for colchicine treatment of parental (PAR)CHO cells at concentration 1.0 (mg/L); type: functional, Cricetulus griseus
[5] = test system: KB; assay: The sensitizing capacity of compound for colchicine treatment of multi drug resistance in KB cell was measured at concentration 3.0 (mg/L); type: functional, Homo sapiens
[6] = test system: KB (human); assay: The sensitizing capacity of compound for colchicine treatment of multi drug resistance in KB cell was measured at concentration 1.0(mg/L)
[7] = test system: KB; assay: The sensitizing capacity of compound for colchicine treatment of multi drug resistance in KB cell was measured at concentration 1.0(mg/L); type: functional, Homo sapiens
[8] = test system: KB; assay: The sensitizing capacity of compound for colchicine treatment of multi drug resistance in KB cell was measured at concentration 3.0(mg/L)
[9] = test system: CHO; assay: The sensitizing capacity of compound for colchicine treatment of parental (PAR)CHO cells was measured at concentration 0.1 (mg/L); type: functional, Cricetulus griseus

SMILES	Activity [1]	Activity [2]	Activity [3]	Activity [4]	Activity [5]	Activity [6]	Activity [7]	Chemosensitizing activity [8]	Activity [9]
CC[C@@H](C)[C@H]1C(=O)NCC(=O)N(C)[C@@H](C(C)C)C(=O)N[C@@H](Cc2ccc(OC)cc2)C(=O)O[C@H](C)C(=O)N2CCCC[C@H]2C(=O)N(C)[C@@H](C(C)C)C(=O)N[C@@H](C(C)C)C(=O)N(C)[C@H](CC(=O)NC23CC4CC(CC(C4)C2)C3)C(=O)N(C)[C@@H]([C@@H](C)CC)C(=O)N1C	177	25	7.3	8.9	3.7	1.1	–	–	–
CC[C@H](C)[C@H]1C(=O)NCC(=O)N(C)[C@@H](C(C)C)C(=O)N[C@@H](Cc2ccc(OC)cc2)C(=O)O[C@H](C)C(=O)N2CCCC[C@H]2C(=O)N(C)[C@@H](C(C)C)C(=O)N[C@@H](C(C)C)C(=O)N(C)[C@@H](CC(=O)OC(C)(C)C)C(=O)N(C)[C@@H]([C@@H](C)CC)C(=O)N1C (cyclo(G[NMeV]Y(Me)[dLac][Pip][NMeV]V[NMeD](OtBu)[NMeI][NMeI]))	135	3.8	4.6	8.6	–	–	1.1	1.8	–
CC[C@H](C)[C@H]1C(=O)NCC(=O)N(C)[C@@H](C(C)C)C(=O)N[C@@H](Cc2ccc(OC)cc2)C(=O)O[C@@H](C)C(=O)N2CCCC[C@H]2C(=O)N(C)[C@@H](C(C)C)C(=O)N[C@@H](C(C)C)C(=O)N(C)[C@@H](CC(=O)OC(C)(C)C)C(=O)N(C)[C@@H]([C@@H](C)CC)C(=O)N1C (cyclo(G[NMeV]Y(Me)[Lac][Pip][NMeV]V[NMeD](OtBu)[NMeI][NMeI]))	333	66	5.4	7	196	–	3.6	–	–
CC[C@@H](C)[C@H]1C(=O)NCC(=O)N(C)[C@@H](C(C)C)C(=O)N[C@@H](Cc2ccc(OC)cc2)C(=O)O[C@@H](C)C(=O)N2CCCC[C@H]2C(=O)N(C)[C@@H](C(C)C)C(=O)N[C@@H](C(C)C)C(=O)N(C)[C@H](CC(=O)NCCC(C)C)C(=O)N(C)[C@@H]([C@@H](C)CC)C(=O)N1C	273	83	7.7	8.6	54	–	1.5	–	–
CC[C@@H](C)[C@H]1C(=O)NCC(=O)N(C)[C@@H](C(C)C)C(=O)N[C@@H](Cc2ccc(OC)cc2)C(=O)O[C@H](C)C(=O)N2CCCC[C@H]2C(=O)N(C)[C@@H](C(C)C)C(=O)N[C@@H](C(C)C)C(=O)N(C)[C@H](CC(=O)N[C@H](C(=O)OC(C)(C)C)C(C)C)C(=O)N(C)[C@@H]([C@@H](C)CC)C(=O)N1C	187	15	6	8.5	124	–	1.2	–	–
CC[C@H](C)[C@H]1C(=O)NCC(=O)N(C)[C@@H](C(C)C)C(=O)N[C@@H](Cc2ccc(OC)cc2)C(=O)O[C@@H](C)C(=O)N2CCCC[C@H]2C(=O)N(C)[C@@H](C(C)C)C(=O)N[C@@H](C(C)C)C(=O)N(C)[C@@H](CC(=O)NC[Si](C)(C)C)C(=O)N(C)[C@@H]([C@@H](C)CC)C(=O)N1C	336	81	7.4	11	123	–	1.3	–	–
CC[C@H](C)[C@H]1C(=O)NCC(=O)N(C)[C@@H](C(C)C)C(=O)N[C@@H](Cc2ccc(OC)cc2)C(=O)O[C@@H](C)C(=O)N2CCCC[C@H]2C(=O)N(C)[C@@H](C(C)C)C(=O)N[C@@H](C(C)C)C(=O)N(C)[C@@H](CC(=O)OCC23CC4CC(CC(C4)C2)C3)C(=O)N(C)[C@@H]([C@@H](C)CC)C(=O)N1C	78	1.4	6.9	7.4	3	–	1.3	–	–
CC[C@H](C)[C@H]1C(=O)NCC(=O)N(C)[C@@H](C(C)C)C(=O)N[C@@H](Cc2ccc(OC)cc2)C(=O)O[C@@H](C)C(=O)N2CCCC[C@H]2C(=O)N(C)[C@@H](C(C)C)C(=O)N[C@@H](C(C)C)C(=O)N(C)[C@@H](CC(=O)OCCC(C)(C)C)C(=O)N(C)[C@@H]([C@@H](C)CC)C(=O)N1C	292	17	6.7	7.9	25	–	1.7	–	–
CC[C@@H](C)[C@H]1C(=O)NCC(=O)N(C)[C@@H](C(C)C)C(=O)N[C@@H](Cc2ccc(OC)cc2)C(=O)O[C@H](C)C(=O)N2CCCC[C@H]2C(=O)N(C)[C@@H](C(C)C)C(=O)N[C@@H](C(C)C)C(=O)N(C)[C@H](CC(=O)O)C(=O)N(C)[C@@H]([C@@H](C)CC)C(=O)N1C	1.8	1.1	–	7.6	–	–	–	–	2.2
CC[C@@H](C)[C@H]1C(=O)NCC(=O)N(C)[C@@H](C(C)C)C(=O)N[C@@H](Cc2ccc(OC)cc2)C(=O)O[C@@H](C)C(=O)N2CCCC[C@H]2C(=O)N(C)[C@@H](C(C)C)C(=O)N[C@@H](C(C)C)C(=O)N(C)[C@H](CC(=O)NCC(C)(C)C)C(=O)N(C)[C@@H]([C@@H](C)CC)C(=O)N1C	358	95	8	13	82	–	2.2	–	–
CC[C@@H](C)[C@H]1C(=O)NCC(=O)N(C)[C@@H](C(C)C)C(=O)N[C@@H](Cc2ccc(OC)cc2)C(=O)O[C@H](C)C(=O)N2CCCC[C@H]2C(=O)N(C)[C@@H](C(C)C)C(=O)N[C@@H](C(C)C)C(=O)N(C)[C@H](CC(=O)NCC(C)(C)C)C(=O)N(C)[C@@H]([C@@H](C)CC)C(=O)N1C	155	11	7.4	12	2.3	–	1.1	–	–
CC[C@@H](C)[C@H]1C(=O)NCC(=O)N(C)[C@@H](C(C)C)C(=O)N[C@@H](Cc2ccc(OC)cc2)C(=O)O[C@@H](C)C(=O)N2CCCC[C@H]2C(=O)N(C)[C@@H](C(C)C)C(=O)N[C@@H](C(C)C)C(=O)N(C)[C@H](CC(=O)NC(C)(C)C)C(=O)N(C)[C@@H]([C@@H](C)CC)C(=O)N1C	343	70	8.4	12	113	–	1.5	–	–
